Measurements from paper PMC9780108, “An intrinsically disordered antimicrobial peptide dendrimer from stereorandomized virtual screening” (Cell Reports. Physical Science, 2022).
≈ marks a conversion by molar mass, not a printed value. Residues, ends and D or L forms follow the SMILES beside them.

Columns and labels:
K. pneumoniae NCTC 418 = details: for MIC at pH 5.0, K. pneumoniae NCTC 418: NCTC 418, pH 5; for MIC at pH 7.4, K. pneumoniae NCTC 418: NCTC 418, pH 7.4; for MIC at pH 8.0, K. pneumoniae NCTC 418: NCTC 418, pH 8
A. baumannii ATCC 19606 = details: for MIC at pH 5.0, A. baumannii ATCC 19606: ATCC 19606, pH 5; for MIC at pH 7.4, A. baumannii ATCC 19606: ATCC 19606, pH 7.4; for MIC at pH 8.0, A. baumannii ATCC 19606: ATCC 19606, pH 8
HEK293 cell line = format: cell-based; details: 48 h
Summary of the method: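 HEK293 cells seeded at 2 × 10³/well, incubated 48 h at 37 °C with serially diluted compounds (stock 2 mg/mL) in DMEM with 10% FBS. AlamarBlue added at 10% final for 3–5 h; fluorescence ex 560/em 590 nm, normalized to untreated cells.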

K. pneumoniae OXA-48 = details: OXA-48, pH 7.4
P. aeruginosa ZEM-1A = details: ZEM-1A, pH 7.4
P. aeruginosa ZEM9A = details: ZEM9A, pH 7.4
P. aeruginosa PA14 = details: PA14, pH 7.4
[1] = system: S aureus COL (methicillin-resistant Staphylococcus aureus); details: for MIC at pH 5.0, S aureus COL: COL (methicillin-resistant, pH 5); for MIC at pH 7.4, S aureus COL: COL (methicillin-resistant, pH 7.4); for MIC at pH 8.0, S aureus COL: COL (methicillin-resistant, pH 8)
S. aureus Newman = details: Newman, pH 7.4
S. maltophilia = details: pH 7.4
P. aeruginosa PAO1 [2] = details: for MIC at pH 5.0, P. aeruginosa PAO1: PAO1, pH 5; for MIC at pH 7.4, P. aeruginosa PAO1: PAO1, pH 7.4; for MIC at pH 8.0, P. aeruginosa PAO1: PAO1, pH 8
B. cenocepacia = details: pH 7.4
E. cloacae = details: pH 7.4
E. coli W3110 = details: for MIC at pH 5.0, E. coli W3110: W3110, pH 5; for MIC at pH 7.4, E. coli W3110: W3110, pH 7.4; for MIC at pH 8.0, E. coli W3110: W3110, pH 8
P. aeruginosa PAO1 [3] = experiment: PI cell permeabilization assay (flow cytometry); format: cell-based, Pseudomonas aeruginosa; details: PAO1 (OD600 = 1) incubated 20 min at 37°C, PI 5 µg/mL
Procedure: page 31: 12. Cell Membrane Permeability Assay Propidium iodide (PI) was used as the fluorescent dye to evaluate integrity of bacterial membranes. A single colony of Pseudomonas aeruginosa PAO1 was grown overnight with shaking (150 rpm) in LB-broth (5 mL) at 37 °C. 100 μL of the overnight culture was regrown in 10 mL LB-broth to the exponential phase OD600 1 (10^9 CFU/mL). Bacteria was washed with MH and then re-suspended to a working concentration of OD600 = 1. AMPDs and polymyxin B (stock solution 1 mg/mL) were added at different final concentrations ( 16, 32 and 64 μg/mL). Samples were incubated with shaking (150 rpm) at 37°C for 20 minutes before samples were centrifuged at 14 000 rpm for 3 min. Bacteria sample was washed twice with PBS and stained with PI 5 µg/mL in PBS with shaking (150 rpm) at 37°C for 20 minutes. Bacteria sample was washed 5 times with PBS and the fluorescence intensity of bacteria suspensions was observed and recorded on a ImageStream ® X Mark II Imaging Flow Cytometer with a 488 nm laser , bacteria cells wi th fluorescent intensity higher than 2 × 104 is defined as PI positive cells. Percentage of PI positive cells was calculated by IDEA S workstation . S30

P. aeruginosa PAO1 [4] = experiment: DiSC3(5) inner membrane depolarization assay; format: cell-based, Pseudomonas aeruginosa; details: PAO1 in HEPES buffer pH 7.4, 2 μM DiSC3(5), up to 64 μg/mL, read within 5 min
Procedure: page 29: 11. DiSC3(5) Membrane Depolarization Assay A single colony of Pseudomonas aeruginosa PAO1 was grown overnight with shaking (150 rpm) in LB-broth (5 mL) at 37 °C. 100 μL of the overnight culture was regrown in 10 mL LB- broth with shaking (200 rpm) to the exponential phase OD 600 = 1 (10^9 CFU/mL). Bacteria were washed once with HEPES buffer (5 mM HEPES, 5 mM glucose, pH 7.4) and diluted to OD 600 = 0.4. Stock solution of 10 mM of DiSC3(5) was prepared in DMSO. Stock solutions of 1 mg/mL of the compounds were prepared in sterilized milli-Q water and diluted to the beginning concentration of 128 μg/mL in 200 μL HEPES buffer containing […] the fluorescent probe DiSC3(5) 4 μM. The diluted samples were added to the first well of 96-well plates (black wells, flat bottom, BRAND® GmbH Wertheim, Germany) and diluted serially by 1/2. 100 μL of the bacterial suspension in HEPES buffer (without DiSC3(5)) were added to each well. In this case, the final OD of bacteria was 0.2, the final concentration of peptide in the first column is 64 μg/mL and DiSC3(5) 2 μM. The control wells are buffer containing DiSC3(5) and bacterial suspension containing DiSC3(5) in HEPES buffer. The plate was measured with a Tecan instrument Infinite M1000 within 5 min. The plate was enabled to shake for 5 sec before measurement. […]

Molecule	MIC at pH 5.0, K. pneumoniae NCTC 418 (K. pneumoniae NCTC 418)	MIC at pH 7.4, K. pneumoniae NCTC 418 (K. pneumoniae NCTC 418)	MIC at pH 8.0, K. pneumoniae NCTC 418 (K. pneumoniae NCTC 418)	MIC at pH 5.0, A. baumannii ATCC 19606 (A. baumannii ATCC 19606)	MIC at pH 7.4, A. baumannii ATCC 19606 (A. baumannii ATCC 19606)	MIC at pH 8.0, A. baumannii ATCC 19606 (A. baumannii ATCC 19606)	IC50 HEK293 (HEK293 cell line)	MIC, K. pneumoniae OXA-48 (K. pneumoniae OXA-48)	MIC, P. aeruginosa ZEM-1A (P. aeruginosa ZEM-1A)	MIC, P. aeruginosa ZEM9A (P. aeruginosa ZEM9A)	MIC, P. aeruginosa PA14 (P. aeruginosa PA14)	MIC at pH 5.0, S aureus COL [1]	MIC at pH 7.4, S aureus COL [1]	MIC at pH 8.0, S aureus COL [1]	MIC, S. aureus Newman (S. aureus Newman)	MIC, S. maltophilia (S. maltophilia)	MIC at pH 5.0, P. aeruginosa PAO1 (P. aeruginosa PAO1 [2])	MIC at pH 7.4, P. aeruginosa PAO1 (P. aeruginosa PAO1 [2])	MIC at pH 8.0, P. aeruginosa PAO1 (P. aeruginosa PAO1 [2])	MIC, B. cenocepacia (B. cenocepacia)	other results
CC(C)C[C@H](NC(=O)[C@H](CCCCN)NC(=O)[C@H](CCCCNC(=O)[C@H](CC(C)C)NC(=O)[C@H](CCCCN)NC(=O)[C@H](CCCCNC(=O)[C@H](CC(C)C)NC(=O)[C@H](CCCCN)NC(=O)[C@H](CCCCNC(=O)[C@H](CC(C)C)NC(=O)[C@@H](N)CCCCN)NC(=O)[C@H](CC(C)C)NC(=O)[C@@H](N)CCCCN)NC(=O)[C@H](CC(C)C)NC(=O)[C@H](CCCCN)NC(=O)[C@H](CCCCNC(=O)[C@H](CC(C)C)NC(=O)[C@@H](N)CCCCN)NC(=O)[C@H](CC(C)C)NC(=O)[C@@H](N)CCCCN)NC(=O)[C@H](CC(C)C)NC(=O)[C@H](CCCCN)NC(=O)[C@H](CCCCNC(=O)[C@H](CC(C)C)NC(=O)[C@H](CCCCN)NC(=O)[C@H](CCCCNC(=O)[C@H](CC(C)C)NC(=O)[C@@H](N)CCCCN)NC(=O)[C@H](CC(C)C)NC(=O)[C@@H](N)CCCCN)NC(=O)[C@H](CC(C)C)NC(=O)[C@H](CCCCN)NC(=O)[C@H](CCCCNC(=O)[C@H](CC(C)C)NC(=O)[C@@H](N)CCCCN)NC(=O)[C@H](CC(C)C)NC(=O)[C@@H](N)CCCCN)C(N)=O [L-G3KL, reference compound] (HELM PEPTIDE1{K.L.K.K.L.K.K.L.K.K.L.[am]}|PEPTIDE2{K.L}|PEPTIDE3{K.L.K.K.L.K.K.L}|PEPTIDE4{K.L}|PEPTIDE5{K.L.K.K.L}|PEPTIDE6{K.L}|PEPTIDE7{K.L.K.K.L}|PEPTIDE8{K.L}$PEPTIDE1,PEPTIDE2,3:R3-2:R2|PEPTIDE3,PEPTIDE4,3:R3-2:R2|PEPTIDE5,PEPTIDE6,3:R3-2:R2|PEPTIDE7,PEPTIDE8,3:R3-2:R2|PEPTIDE1,PEPTIDE7,6:R3-5:R2|PEPTIDE1,PEPTIDE3,9:R3-8:R2|PEPTIDE3,PEPTIDE5,6:R3-5:R2$$$V2.0)	> 64 μg/mL	> 64 μg/mL	4 μg/mL	8 μg/mL	8 μg/mL	1 μg/mL	460 ± 17 µg/mL (≈ 101 µM)	>64 µg/mL	4 µg/mL (≈ 0.882 µM)	16 µg/mL (≈ 3.53 µM)	2 to 4 µg/mL	> 64 μg/mL	> 64 μg/mL	2 μg/mL	>64 µg/mL	8 µg/mL (≈ 1.76 µM)	16 μg/mL	4 μg/mL	1 μg/mL	>64 µg/mL	MIC, E. cloacae (E. cloacae): 8 µg/mL (≈ 1.76 µM); MIC at pH 5.0, E. coli W3110 (E. coli W3110): 32 μg/mL; MIC at pH 7.4, E. coli W3110 (E. coli W3110): 8 μg/mL; MIC at pH 8.0, E. coli W3110 (E. coli W3110): 1–2 μg/mL
CC(C)C[C@H](NC(=O)[C@H](CCCCN)NC(=O)[C@H](CCCCN)NC(=O)[C@H](CCCCNC(=O)[C@H](CC(C)C)NC(=O)[C@H](CC(C)C)NC(=O)[C@H](CCCCN)NC(=O)[C@H](CCCCNC(=O)[C@H](CC(C)C)NC(=O)[C@H](CCCCN)NC(=O)[C@H](CCCCNC(=O)[C@H](CC(C)C)NC(=O)[C@@H](N)CCCCN)NC(=O)[C@H](CC(C)C)NC(=O)[C@@H](N)CCCCN)NC(=O)[C@H](CC(C)C)NC(=O)[C@H](CCCCN)NC(=O)[C@H](CCCCNC(=O)[C@H](CC(C)C)NC(=O)[C@@H](N)CCCCN)NC(=O)[C@H](CC(C)C)NC(=O)[C@@H](N)CCCCN)NC(=O)[C@H](CC(C)C)NC(=O)[C@H](CC(C)C)NC(=O)[C@H](CCCCN)NC(=O)[C@H](CCCCNC(=O)[C@H](CC(C)C)NC(=O)[C@H](CCCCN)NC(=O)[C@H](CCCCNC(=O)[C@H](CC(C)C)NC(=O)[C@@H](N)CCCCN)NC(=O)[C@H](CC(C)C)NC(=O)[C@@H](N)CCCCN)NC(=O)[C@H](CC(C)C)NC(=O)[C@H](CCCCN)NC(=O)[C@H](CCCCNC(=O)[C@H](CC(C)C)NC(=O)[C@@H](N)CCCCN)NC(=O)[C@H](CC(C)C)NC(=O)[C@@H](N)CCCCN)C(N)=O [L-T7, reference compound] (HELM PEPTIDE1{K.L.K.K.L.K.K.L.L.K.K.K.L.[am]}|PEPTIDE2{K.L}|PEPTIDE3{K.L.K.K.L.K.K.L.L}|PEPTIDE4{K.L}|PEPTIDE5{K.L.K.K.L}|PEPTIDE6{K.L}|PEPTIDE7{K.L.K.K.L}|PEPTIDE8{K.L}$PEPTIDE1,PEPTIDE2,3:R3-2:R2|PEPTIDE3,PEPTIDE4,3:R3-2:R2|PEPTIDE5,PEPTIDE6,3:R3-2:R2|PEPTIDE7,PEPTIDE8,3:R3-2:R2|PEPTIDE1,PEPTIDE7,6:R3-5:R2|PEPTIDE1,PEPTIDE3,10:R3-9:R2|PEPTIDE3,PEPTIDE5,6:R3-5:R2$$$V2.0)	> 64 μg/mL	32 μg/mL	8 μg/mL	16 μg/mL	8 μg/mL	2–4 μg/mL	70 ± 6 µg/mL (≈ 14.3 µM)	16 µg/mL (≈ 3.27 µM)	4 µg/mL (≈ 0.818 µM)	8 µg/mL (≈ 1.64 µM)	8 µg/mL (≈ 1.64 µM)	> 64 μg/mL	> 64 μg/mL	4 μg/mL	>64 µg/mL	4 µg/mL (≈ 0.818 µM)	16 μg/mL	8 μg/mL	2–4 μg/mL	>64 µg/mL	MIC, E. cloacae (E. cloacae): 8 µg/mL (≈ 1.64 µM); MIC at pH 5.0, E. coli W3110 (E. coli W3110): 16 μg/mL; MIC at pH 7.4, E. coli W3110 (E. coli W3110): 4 μg/mL; MIC at pH 8.0, E. coli W3110 (E. coli W3110): 2 μg/mL
PMB nonapeptide [PMBN]	–	–	–	–	–	–	–	–	–	–	–	–	–	–	–	–	–	–	–	–	Cell permeabilization (PI), percentage of PI-positive cells (P. aeruginosa PAO1 [3]; 16 μg/mL): 40%; Cell permeabilization (PI), percentage of PI-positive cells (P. aeruginosa PAO1 [3]; 32 μg/mL): 38%; Cell permeabilization (PI), percentage of PI-positive cells (P. aeruginosa PAO1 [3]; 64 μg/mL): 37%; Inner membrane depolarization (DiSC3(5) fluorescence), words (P. aeruginosa PAO1 [4]): no effect on inner membranes
